Test system: C57BL/6 mice
Assay: Warm renal ischemia/reperfusion, 30 minutes ischemia (Example 2)
Type: in vivo
Settings: mean±SEM, n=6, 1 day after 30 min ischemia/reperfusion
Description: Nine Experimental groups were used as follows: • 1) Sham-operated mice sacrificed 1 day after surgery, n=6, • 2) PBS-vehicle-treated mice 15 min before ischemia/1 day reperfusion, n=6, • 3) Isotype control antibody 10 mg/kg-treated mice 15 minutes before ischemia/1 day reperfusion, n=6 (The isotype control antibody is mouse IgG1 isotype control purchased from RnD systems (catalogue number MAB002), this isotype control antibody having binding specificity for Keyhole Limpet Hemocyanin (KLH) antigen), • 4) OPN301 anti-TLR2 monoclonal antibody 10 mg/kg-treated mice 15 minutes before ischemia/1 day reperfusion, n=6, • 5) Pargyline 6 mg/kg-treated mice 15 minutes before ischemia/1 day reperfusion, n=6, • 6) PBS-vehicle-treated mice 15 minutes before ischemia/5 days reperfusion, n=6, • 7) Isotype control antibody (RnD systems catalogue number MAB002) 10 mg/kg-treated mice 15 minutes before ischemia/5 days reperfusion, n=6, • 8) OPN301 anti-TLR2 antibody 10 mg/kg-treated mice 15 minutes before ischemia/5 days reperfusion, n=6, • 9) Pargyline 6 mg/kg-treated mice 15 minutes before ischemia/5 days reperfusion, n=6. Experimental Warm Renal Ischemia/Reperfusion
Warm renal ischemia/reperfusion (I/R) experiments were adapted from a previous study (Stokman et al, 2005). Briefly, a wild type strain of C57BL/6 mice were anesthetized with 10 μl/g of a mix of 2.5 ml ketamine (Ketalar 50 mg/ml, Centravet; Lapalisse, France), 0.5 ml xylazine (Rompun 2.5%, Centravet; Lapalisse, France), and 7 ml NaCl 0.9% (Centravet; Lapalisse, France). During surgery, animals were set on a 35° C. hotplate. After a 2 millimeters incision, the jugular vein was exposed for intravenous injection (insulin syringe; VWR, Fontenay-sous-Bois, France) of 300 μl (1 min infusion) of the considered treatment. The incision was closed after haemostasis (5/0 Ethicrin thread, Ethicon; Auneau, France). Three centimetre in length abdominal cutaneous and muscular incisions were performed; renal pedicles were exposed and clamped for 30 minutes using microaneurysm clamps (AREX; Palaiseau, France). […]

With C#CCN(C)Cc1ccccc1 [Pargyline] as the molecule, how does the “MDA level (lipid peroxidation)” value (PBS-vehicle 0.082±0.004) read?
The value was 0.051±0.002 nmol/mg proteins.

And the “MPO activity (neutrophil accumulation in renal tissue)” value (PBS-vehicle 63.2±9.55)?
The value was 53.48±5.34 U MPO/mg protein.

What about the “F4/80-positive staining (macrophage infiltration)” value (treated 15 min before ischemia (antibodies 10 mg/kg, pargyline 6 mg/kg), PBS-vehicle 3.24±0.21) of the same molecule?
Its value is 1.39±0.15%.

Reference: US9234046B2, “Treatment of renal disease” (OPSONA Therapeutics Ltd, priority 2007, dated 2016)
